pIC50: −log10 of the molar value.
What was measured:
HFD-fed Gpr84−/− mice = test: High-fat diet (HFD) mouse model, Gpr84−/− mice; format: in vivo
Experimental: Based on PBI-4547’s pharmacological profile and binding activities, we next used Gpr84^−/− mice fed a HFD to investigate the role of GPR84 in mediating the protective effects of PBI-4547 on glucose and FA metabolism.
WT or Gpr84^−/− mice, as previously described, (aged 10–14 weeks at the beginning of the experiment) were either fed a standard diet (STD) or a high-fat diet (HFD) (Envigo #TD.06414) for 14 weeks. At this point, mice were administered either vehicle (water) or PBI-4547 (10 mg/kg) on a daily basis for 6 (WT study) or 8 (WT vs KO study) weeks by gastric gavage, and were sacrificed thereafter. Liver and WAT tissues were fixed in 10% formalin for histological analyses or flash frozen in liquid nitrogen for RT-PCR analyses. All animal studies were reviewed and approved by the animal care and use committee of the Institut National de la Recherche Scientifique – Armand-Frappier (Laval, QC, Canada) and the University of Ottawa’s Animal Care and Veterinary Services (Ottawa, ON, Canada). Protocols were approved and undertaken according to the Canadian Council on Animal Care guidelines.
Oral glucose tolerance tests (OGTT) were completed 6 weeks after beginning of the treatments. Briefly, mice were fasted for 4–6 h, given a bolus of glucose at […] BW orally, and blood glucose values measured at 0, 15, 30, 60, 120 min. In parallel, a blood sample was obtained at 0, 15, 60 and 120 min for insulin quantification by ELISA (EMD Millipore).
After fixation in formalin, iWAT (inguinal), eWAT (epididymal) and liver sections were embedded in paraffin. Thin section of […] were stained with Hematoxylin and Eosin or Sirius red for analyses. WAT collagen deposition and liver characteristics of NAFLD were quantified histologically by a pathologist (R.C.) in a double-blinded manner. Liver histology was performed on H&E stained slides. WAT collagen deposition was scored using Picro Sirius-Red stained slides. Immunofluorescence-detection of α-SMA in liver sections was performed. Briefly, samples were deparaffinized in a series of xylenes, rehydrated in graded alcohols followed by an antigen-unmasking step by microwaving in Tris-buffer (pH 8.2). Sections were blocked with 10% donkey serum (Vector labs), 1% bovine serum albumin (Sigma) in PBS + 1%Tween for 1 h at room temperature. Slides were incubated overnight at 4 °C with an anti-mouse smooth muscle α-Actin antibody (1:300; Santa Cruz, clone #1A4). Secondary detection was performed using a donkey anti-mouse Alexa Fluor 594 (1:500; Molecular Probes), incubated for 1 h at room temperature. Slides were dehydrated and mounted with fluorescent antifade media containing DAPI (Vector labs). Images were taken at 100X and 200X magnification and representative images are shown.
RNA was extracted and purified as previously described. Real-time quantitative PCR was performed on a CFX96 Touch Real-Time PCR Detection System (Bio-Rad) using TaqMan gene expression assays (Fisher Scientific). qPCR data were analyzed using the 2-^ΔΔCt method, using Gapdh and Hprt as endogenous control. RT-qPCR data were reported as Geometric means ± SEM.

GPR84 = molecular target: T1, GPR84 (Homo sapiens, UniProt Q9NQS5); test: BRET Gαi2 activation biosensor in HEK293 cells transfected with GPR84; format: cell-based
T1 construct: expressed in transfected cells; host or cells: HEK293
T1 sequence (Q9NQS5 whole entry, species assumed): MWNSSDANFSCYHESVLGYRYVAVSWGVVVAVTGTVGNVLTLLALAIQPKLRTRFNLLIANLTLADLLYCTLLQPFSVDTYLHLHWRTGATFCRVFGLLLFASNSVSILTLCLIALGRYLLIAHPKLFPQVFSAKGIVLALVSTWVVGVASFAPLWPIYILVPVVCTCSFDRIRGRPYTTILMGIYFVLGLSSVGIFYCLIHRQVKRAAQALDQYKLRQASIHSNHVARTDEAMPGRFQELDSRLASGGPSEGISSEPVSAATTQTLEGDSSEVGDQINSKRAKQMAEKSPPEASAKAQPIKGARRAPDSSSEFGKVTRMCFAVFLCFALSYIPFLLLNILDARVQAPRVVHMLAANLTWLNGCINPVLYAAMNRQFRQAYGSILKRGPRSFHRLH
Excerpt: PBI-4547 (2-[3,5-dipentylphenyl]acetate sodium salt) is a medium-chain FA (MCFA) mimetic (Fig. 1A). Accordingly, we examined the signaling properties of PBI-4547 on receptors known to be activated by MCFAs. […] This biosensor consisted of an Rluc8-tagged Gαi2 subunit, a GFP10-tagged Gγ2 subunit, and an untagged Gβ1. Agonist stimulation and receptor activation triggers a physical separation between the Gα-Rluc8 donor and the GFP10-Gγ2 acceptor, resulting in a decrease in BRET signal, whose amplitude is correlated to ligand efficacy. […] (A) Chemical structure of PBI-4547. (B) Gi pathway activation was monitored in HEK293 cells transfected with GPR84 and the Gαi2 activation biosensor. […] (C) β-arrestin 2 recruitment to activated GPR120 receptor was monitored in HEK293 cells transfected with RLuc8-β-arrestin 2 and GPR120-GFP10. (D) Cells transfected with GPR40 and Gαq or Gαi2 activation biosensor were exposed to increasing concentrations of PBI-4547 or to 500 µM of sodium decanoate, and BRET variation compared with vehicle was measured. Cells were exposed to increasing concentrations of PBI-4547 or to 100 µM of GW9508, and BRET variation compared with vehicle was measured. (E) LanthaScreen TR-FRET competitive binding assay of PBI-4547 and PPAR control agonists to the LBD of PPARα, PPARδ and PPARγ. (F) Cell-based GAL4 transactivation assay in HEK293 cells transfected with the LBD of PPARα, PPARδ or PPARγ, and treated with increasing concentrations of PBI-4547 or PPAR control agonists. Data in (B–D) are expressed as means ± SEM of 4–5 experiments; data in (E,F) are from a representative experiment from a total of 3 to 4 independent experiments. BRET measurements in transiently transfected HEK293 cells were performed as previously described. Ligands were incubated with cells at room temperature for 10 min (G protein biosensors) or 25 min (β-arrestin/GPR120) before collecting BRET[2] readings between Rluc8 and GFP10.

[1] = WT vs KO study, HFD-fed Gpr84−/−

Question: Which results are given for `CCCCCc1cc(CCCCC)cc(CC(=O)[O-])c1.[Na+]` [PBI-4547, 2-[3,5-dipentylphenyl]acetate sodium salt]?
Answer: immunodetectable α-SMA in liver (HFD-fed Gpr84−/− mice; HFD-fed GPR84−/− mice): further decreased; impact on hepatic steatosis (HFD-fed Gpr84−/− mice; HFD-fed Gpr84−/− (KO) mice): protective effect was lost; expression of hepatic genes previously found regulated by PBI-4547 in WT mice (HFD-fed Gpr84−/− mice; HFD-fed Gpr84−/− mice, qRT-PCR): no longer modulated; WAT mean adipocyte diameters and area (HFD-fed Gpr84−/− mice; [1]): remained unchanged; fasting blood glucose levels (HFD-fed Gpr84−/− mice; [1]): only in WT mice; serum adiponectin (HFD-fed Gpr84−/− mice; [1]): upregulated; serum cholesterol levels (HFD-fed Gpr84−/− mice; [1]): remained unchanged; serum triglyceride levels (HFD-fed Gpr84−/− mice; [1]): only in WT mice; OGTT (HFD-fed Gpr84−/− mice; WT vs KO study, HFD-fed Gpr84−/−, after 6 weeks): only had a significant effect on OGTT in WT mice; modulatory effect on pro-inflammatory and pro-fibrotic markers in WAT (HFD-fed Gpr84−/− mice; mice lacking the GPR84 receptor): absent; pIC50 (GPR84; co-treated with 125 mM sodium decanoate and increasing concentrations of PBI-4547, read-out: IC50, inhibition of GPR84/Gαi2 activation): 4.77; GPR84/Gαi2-mediated BRET signal modulation (agonist mode) (GPR84; compound alone vs vehicle): did not lead to GPR84/Gαi2-mediated BRET signal modulation

From publication PMC7391726, “Fatty acid mimetic PBI-4547 restores metabolic homeostasis via GPR84 in mice with non-alcoholic fatty liver disease” (Scientific Reports, 2020)
